One data set relates to arteriosclerotic rats. In words: Effect of vitamin K2 on arteriosclerotic rats (vitamin D2-induced calcification). The format is in vivo. The method, then:
Then vitamin D2, vitamin D2 with vitamin K2 (in a low dose), and vitamin D2 with vitamin K2 (in a high dose) were given respectively to the groups A, B and C.
After feeding for five weeks, the urine of each group was sampled for a period of 20 hours and the urinary calcium, phosphorus and creatinine levels were measured.
After feeding for six weeks, the animals of each group were bled to death and the blood, aorta (from the aortic arch to the thoracic aorta) and kidneys were sampled.
The serum was separated from the blood and the serum calcium and phosphorus levels were measured.
The aorta and kidneys were defatted, dehydrated and incinerated and the calcium and phosphorus contents therein were determined.
The calcium concentrations were determined by atomic absorption spectrophotometry. The inorganic phosphorus concentrations were determined by Goldenberg's method. The creatinine concentrations were determined by the enzymatic method.
(The data of each group were compared with those of the control group according to the t-test method.)

Data set [1] is described as follows: Acute (single administration) toxicity test in rats. As to conditions: in vivo, Rat M, medium 5% gum arabic. Type of data set: in vivo, SD rats. The method, then:
(§1) Next, the results of the acute toxicity test of 2-methyl-3-[(2E,6E,10E)-3,7,11,15-tetramethyl-2,6,10,14-hexadecatetraenyl]naphthoquinone (generic name: vitamin K2), which is a typical example of the compound of the present invention, will be given. An acute toxicity test was conducted as follows:
(§2) A single administration toxicity test was effected by orally, subcutaneously and intraperitoneally administering the test compound (medium: 5% gum arabic) to SD rats, ICR mice and beagles aged 7 to 8 weeks (5 females and 5 males in each case).

The subject of another data set is SD rats. Described as above. Type of data set: in vivo. As to conditions: Rat F, medium 5% gum arabic. The method, then:
as §1, §2

Data set [2] can be described thus: Acute (single administration) toxicity test in mice. Type of data set: in vivo, ICR mice. The following applies: in vivo, Mouse M, medium 5% gum arabic. As to the method:
as §1, §2

The test system of another data set is ICR mice. The description is as above. The format is in vivo. The following applies: Mouse F, medium 5% gum arabic. The method, then:
as §1, §2

A short description of data set [3]: Acute (single administration) toxicity test in beagles. The format is in vivo. As to conditions: dog, in vivo, Beagle M, medium 5% gum arabic. The method, then: as §1, §2
In the next data set the test system is beagles. The description is as above. Type of data set: in vivo. The following applies: Beagle F, medium 5% gum arabic. The method, then: as §1, §2
[4] abbreviates: Group A: vitamin D2 2.5 × 10^5 IU/kg/day p.o. alone, 6 weeks, n=8.

In the case of `C=C1CC[C@H](O)C/C1=C/C=C1\CCC[C@]2(C)[C@@H]([C@H](C)/C=C/[C@H](C)C(C)C)CC[C@@H]12` [vitamin D2], in the data set with arteriosclerotic rats (setting [4]), the “Aorta Ca” value worked out at 11.6 ± 11.1 mg/dL, the “Aorta P” value was 10.9 ± 7.1 mg/dL, the “Kidney Ca” value came out at 7.6 ± 7.8 mg/dL and the “Kidney P” value stood at 7.2 ± 2.0 mg/dL. The “calcium and phosphorus contents in the aorta” value in the data set on arteriosclerotic rats (group A, vitamin D2 2.5 × 10^5 IU/kg/day p.o. alone, 6 weeks) is on record as “significant increases”.
For `CC(C)=CCC/C(C)=C/CC/C(C)=C/CC/C(C)=C/CC1=C(C)C(=O)c2ccccc2C1=O` [vitamin K2, 2-Methyl-3-[(2E,6E,10E)-3,7,11,15-tetramethyl-2,6,10,14-hexadecatetraenyl]naphthoquinone], the LD50 in data set [1] (ip, intraperitoneal) is greater than 5000 mg/kg; in data set [1] (oral), greater than 5000 mg/kg; in data set [1] (sc, subcutaneous), greater than 5000 mg/kg; with SD rats (intraperitoneal), greater than 5000 mg/kg; in the data set on SD rats (oral), greater than 5000 mg/kg; in the data set on SD rats (subcutaneous) it was greater than 5000 mg/kg. For the same molecule, the LD50 in data set [2] (ip, intraperitoneal) was greater than 5000 mg/kg; in data set [2] (oral), greater than 5000 mg/kg; in data set [2] (sc, subcutaneous), greater than 5000 mg/kg; with ICR mice (intraperitoneal), greater than 5000 mg/kg; with ICR mice (oral), greater than 5000 mg/kg; in the data set with ICR mice (subcutaneous), greater than 5000 mg/kg. In addition, the LD50 in data set [3] (ip, intraperitoneal) is greater than 3000 mg/kg; in data set [3] (oral), greater than 3000 mg/kg; in data set [3] (sc, subcutaneous), greater than 3000 mg/kg; in the data set with beagles (intraperitoneal) it was greater than 3000 mg/kg; with beagles (oral) it was greater than 3000 mg/kg; in the data set on beagles (subcutaneous) it was greater than 3000 mg/kg. For the same molecule, the “Aorta Ca” value in the data set on arteriosclerotic rats (po, 10 mg/kg, 1008 h) is 5.0 ± 3.8 mg/dL; in the data set on arteriosclerotic rats (po, 100 mg/kg, 1008 h), 2.6 ± 3.2 mg/dL. For the same molecule, the “Aorta P” value with arteriosclerotic rats (po, 10 mg/kg, 1008 h) was determined as 12.6 ± 12.2 mg/dL; in the data set with arteriosclerotic rats (po, 100 mg/kg, 1008 h), 3.7 ± 4.3 mg/dL. The “Kidney Ca” value with arteriosclerotic rats (po, 10 mg/kg, 1008 h) came out at 3.4 ± 3.8 mg/dL; in the data set with arteriosclerotic rats (po, 100 mg/kg, 1008 h), 1.6 ± 1.4 mg/dL. Further, the “Kidney P” value with arteriosclerotic rats (po, 10 mg/kg, 1008 h) is 6.3 ± 2.7 mg/dL; in the data set with arteriosclerotic rats (po, 100 mg/kg, 1008 h) it was 4.5 ± 1.4 mg/dL.

(Values after patent EP0679394B1, “Menatetronome derivative as antiarteriosclerotic agent” (Eisai Co., Ltd., priority 1994, dated 1995).)
